What was measured:
Format in all cases: in vivo, human
[1] = Body weight, Phase 2a study
Protocol: Body weight was measured during the screening period, at the start of the run—in period (Day −28), and prior to breakfast on Day 1 (predose) and Day 29. The subject should have taken off their shoes and remove bulky clothing. Calibrated scales were used.
The change and percent change in body weight from baseline (Day 1) to Day 29 (kg) were determined. The proportion of subjects achieving>5% body weight loss from baseline (Day 1) to Day 29 was also determined.

[2] = tested on: overweight/obese subjects with Type 2 Diabetes Mellitus (T2DM); test: Fasting plasma glucose (FPG), Phase 2a study
Protocol: The change in fasting plasma glucose (FPG) from baseline to Day 28 was assessed.

[3] = Safety: adverse events, laboratory values, vital signs, ECG
Protocol: (§1) Blood samples were collected to evaluate anti-drug antibody (ADA) response to cotadutide. Serum samples were evaluated for ADA using a validated immunoassay. Adverse events (AEs) and serious adverse events (SAEs) were collected from the time of informed consent throughout the treatment period and including the follow-up period. AEs and SAEs were graded by severity and relationship to investigational product and SAEs were assessed for relationship to protocol procedures.

[4] = tested on: overweight/obese subjects with Type 2 Diabetes Mellitus (T2DM); test: 24-hour glucose urine excretion; details: Day 28
Protocol: Changes in 24-hour glucose urine excretion from baseline to Day 28 were assessed. At baseline, subjects in the cotadutide group had less urine glucose excretion compared with subjects in the placebo group (4552.85 vs 9107.06 mg/24 hr, respectively).

[5] = Immunogenicity: anti-drug antibody (ADA) response to cotadutide
Protocol: as §1
Development of ADA and titres (in any subjects testing positive) were assessed to evaluate the immunogenicity profile of cotadutide titrated up to a dose of 300 μg. No subjects in the placebo group and 3 subjects (12.0%) in the cotadutide group tested positive for ADA at baseline. None of these subjects who tested positive at baseline were ADA positive post-baseline. One subject (4.2%) in the placebo group and 3 subjects (12.5%) in the cotadutide group were ADA positive post-baseline.

[6] = Pharmacokinetics of cotadutide in plasma (LC-MS/MS)
Protocol: The Cmax and the corresponding tmax were identified from the observed data. Log-linear regression of the terminal phase yielded the terminal rate constant (λz). The area under the plasma concentration time-curve during the dosing interval (AUCτ) was calculated by the log-linear trapezoidal rule. The area under the curve to infinity (AUC0-inf) was calculated as the sum of AUC(o-t) and Ct/z, where Ct is the observed plasma concentration obtained from the log-linear regression analysis of the last quantifiable time point and z is the terminal phase rate constant. Clearance (CL/F) was determined by dose/AUC0-inf, and the terminal half-life (t1/2) was calculated as 0.693/λz.

[7] = tested on: overweight/obese subjects with Type 2 Diabetes Mellitus (T2DM); test: Fasting free fatty acid (FFA) levels; details: Day 28 (300 μg); vs placebo
Protocol: The changes in fasting free fatty acid (FFA) from baseline to the end of each dose level were assessed. Fasting FFA changes from baseline to Day 7 (100 μg), Day 14 (200 μg), or Day 28 (300 μg) were similar between treatment groups (LS mean difference at Day 28: −0.04 mEq/L; p=0.5322).

CCCCCCCCCCCCCCCC(=O)N[C@@H](CCC(=O)NCCCC[C@H](NC(=O)[C@H](CC(=O)O)NC(=O)[C@H](CO)NC(=O)[C@@H](NC(=O)[C@H](Cc1ccccc1)NC(=O)[C@@H](NC(=O)CNC(=O)[C@H](CCC(N)=O)NC(=O)[C@H](CO)NC(=O)[C@@H](N)Cc1c[nH]cn1)[C@@H](C)O)[C@@H](C)O)C(=O)N[C@@H](CO)C(=O)N[C@@H](CCC(=O)O)C(=O)N[C@@H](Cc1ccc(O)cc1)C(=O)N[C@@H](CC(C)C)C(=O)N[C@@H](CC(=O)O)C(=O)N[C@@H](CO)C(=O)N[C@@H](CCC(=O)O)C(=O)N[C@@H](CCCNC(=N)N)C(=O)N[C@@H](C)C(=O)N[C@@H](CCCNC(=N)N)C(=O)N[C@@H](CC(=O)O)C(=O)N[C@@H](Cc1ccccc1)C(=O)N[C@H](C(=O)N[C@@H](C)C(=O)N[C@@H](Cc1c[nH]c2ccccc12)C(=O)N[C@@H](CC(C)C)C(=O)N[C@@H](CCC(=O)O)C(=O)N[C@@H](C)C(=O)NCC(=O)NCC(=O)O)C(C)C)C(=O)O [Cotadutide]
Body weight, Day 29 change from baseline, mean ([1]; baseline (Day 1) to Day 29): -3.06 kg
Body weight, Day 29 change from baseline, median ([1]; baseline (Day 1) to Day 29): -2.85 kg
Body weight, Day 29 percent change from baseline, mean ([1]; baseline (Day 1) to Day 29): −3.30%
Body weight, Day 29 percent change from baseline, median ([1]; baseline (Day 1) to Day 29): −3.14%
Proportion of subjects achieving >5% body weight loss ([1]; baseline to Day 29, 3 subjects): 12.5%
Body weight, Day 29 change from baseline, LS mean ([1]; baseline to Day 29, ANCOVA): -3.16 kg
Body weight, Day 29 percent change from baseline, LS mean ([1]; baseline to Day 29, ANCOVA): −3.33%
Body weight, Day 29 change from baseline, LS mean difference ([1]; baseline to Day 29, vs placebo): -2.13 kg
Body weight, Day 29 percent change from baseline, LS mean difference ([1]; baseline to Day 29, vs placebo): −2.26%
Fasting plasma glucose, Day 28 (LOCF), mean ([2]; Day 28 (LOCF), ITT): 115.33 mg/dL
Fasting plasma glucose, Day 28 (LOCF), median ([2]; Day 28 (LOCF), ITT): 106.32 mg/dL
Fasting plasma glucose, change from baseline (LOCF), mean ([2]; baseline to Day 28): -34.24 mg/dL
Fasting plasma glucose, change from baseline (LOCF), median ([2]; baseline to Day 28): -43.25 mg/dL
Fasting plasma glucose, change from baseline (LOCF), LS mean ([2]; baseline to Day 28, ANCOVA): -34.15 mg/dL
Fasting plasma glucose, change from baseline (LOCF), LS mean difference ([2]; baseline to Day 28, vs placebo): -37.73 mg/dL
Incidence of treatment-emergent adverse events (TEAEs) ([3]; As-treated, 28 days): 52.0%
Subjects with a TEAE that led to discontinuation of investigational product ([3]; abdominal pain and vomiting): Two
Incidence of investigational product-related TEAEs ([3]; as judged by the investigator): 40.0%
Heart rate ([3]; compared with the placebo group): increased heart rate was observed
Blood pressure (BP) ([3]; in vivo): No meaningful changes
Hematology, serum chemistry, or urinalysis laboratory values ([3]; in vivo): no clinically meaningful trends
Severity of TEAEs ([3]; in vivo): mild (Grade 1) or moderate (Grade 2)
Electrocardiogram (ECG) parameters ([3]; with the exception of heart rate): no clinically meaningful trends
24-hour glucose urine excretion, change from baseline, LS mean [4]: −643.46 mg/24h
24-hour glucose urine excretion, change from baseline, LS mean difference ([4]; vs placebo): 921.26 mg/24h
Subjects ADA positive post-baseline ([5]; 3 subjects): 12.5%
Subjects ADA positive at Day 29 ([5]; Day 29, 1 subject): 4.2%
Subjects ADA positive at the End of Study ([5]; End of Study, 2 subjects): 8.3%
Treatment boosted ADA (baseline titre boosted 4-fold or higher) ([5]; during drug administration): No subjects had a treatment boosted ADA
Effect of dapagliflozin on cotadutide clinical PK ([6]; cotadutide 100 to 300 μg/day): not affected by the presence of dapagliflozin
half-life ([6]; human, plasma, subcutaneous, 300 ug, across doses 100, 200 and 300 μg, read-out: Cotadutide half-life t1/2): 8.8 to 9.1 h
Fasting FFA change from baseline, LS mean difference [7]: −0.04 mEq/L

Source: patent publication US20230012936A1, “COMBINATION THERAPY USING GLUCAGON AND GLP-1 CO-AGONISTS FOR THE TREATMENT OF OBESITY” (MEDIMMUNE, LLC, priority 2019, published 2023)
